Earlier results as cited in paper PMC10949855 (Journal of veterinary pharmacology and therapeutics, 2022).

Conditions: oral, dogs; ref KuKanich & KuKanich 2015; Matsui et al 1995; cited from earlier work

Row | SMILES | TMAX
1 | O=C(N[C@H](CO)[C@H](O)c1ccc([N+](=O)[O-])cc1)C(Cl)Cl [chloramphenicol] | 1.3 h
2 | CN/C(=N/CCSCc1nc[nH]c1C)NC#N [cimetidine] | 1.8 h
3 | CN(C)CCCC1(c2ccc(F)cc2)OCc2cc(C#N)ccc21 (stereo not shown) [citalopram] | 1 h
4 | CC(=O)N1CCN(c2ccc(OCC3COC(Cn4ccnc4)(c4ccc(Cl)cc4Cl)O3)cc2)CC1 (stereo not shown) [ketoconazole] | 2 h
